15 compounds from PubChem BioAssay (NCI) can be followed below.

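Dose response: 5 concentrations. Exposure: 48 h. Format: 96-well plates. Endpoint: linear interpolation; highest concentration if not reached. GI50: concentration for 50% inhibition of growth. The concentration for full growth arrest is given as TGI.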

Among the test systems are CAKI-1 renal; COLO 205 colon; IGROV1 ovarian; NCI-H226 lung; OVCAR-3 ovarian; OVCAR-4 ovarian; SF-539 CNS; SN12C renal; UO-31 renal; HOP-92 NSCLC.
Common to all, as to test: NCI tumour cell line growth inhibition, 48 h

In the case of `N#CC(Nc1cccc(C(F)(F)F)c1)c1ccccc1C(F)(F)F` (centres undefined), the TGI in the assay on CAKI-1 renal was 9.09 µM; with COLO 205 colon, 10.6 µM; with IGROV1 ovarian, 38.1 µM; in the assay with NCI-H226 lung, 30.4 µM; in the assay with OVCAR-3 ovarian, 16.3 µM; with OVCAR-4 ovarian, 15.2 µM. The TGI is 33.1 µM in the assay on SF-539 CNS, 17.9 µM in the assay with SN12C renal and 31.9 µM in the assay with UO-31 renal.

As for `c1ccc(N=c2nc(N3CCOCC3)ss2)cc1`, the TGI in the assay on CAKI-1 renal is 34.5 µM; in the assay with HOP-92 NSCLC, 36.3 µM; in the assay with IGROV1 ovarian, 52.7 µM; in the assay with NCI-H226 lung, more than 100 µM; in the assay with OVCAR-4 ovarian, 29.1 µM; in the assay with SF-539 CNS, 32.3 µM. Besides, the TGI is 28.5 µM in the assay with SN12C renal and 50.2 µM in the assay on UO-31 renal.

On to `CCOc1ccc(/C(C=O)=C(\Cl)c2ccc(OC)c(OC)c2)cc1`, for which the TGI with CAKI-1 renal, in the assay with COLO 205 colon, in the assay with HOP-92 NSCLC, in the assay on IGROV1 ovarian, with NCI-H226 lung and in the assay with OVCAR-3 ovarian was more than 100 µM in each case. Further, the TGI in the assay on SF-539 CNS, with SN12C renal and in the assay on UO-31 renal was more than 100 µM throughout.

Regarding `CCCC(N)C(=O)c1ccccc1` (centres undefined), the TGI in the assay on CAKI-1 renal, in the assay with COLO 205 colon, in the assay with HOP-92 NSCLC, in the assay with IGROV1 ovarian, in the assay with NCI-H226 lung and in the assay on OVCAR-3 ovarian was more than 100 µM throughout. Besides, the TGI in the assay with OVCAR-4 ovarian, with SF-539 CNS, in the assay with SN12C renal and in the assay with UO-31 renal was more than 100 µM throughout.

For the compound `Cc1cc2c(C(C)C)c(O)c(O)c(C=NCCO)c2c(O)c1-c1c(C)cc2c(C(C)C)c(O)c(O)c(C=NCCO)c2c1O`, the TGI was 19.5 µM with CAKI-1 renal; 3.03 µM in the assay on COLO 205 colon; 5.07 µM in the assay with HOP-92 NSCLC; 6.38 µM in the assay with IGROV1 ovarian; 6.88 µM in the assay with NCI-H226 lung; 5.79 µM with OVCAR-3 ovarian. Also, the TGI in the assay with OVCAR-4 ovarian amounted to 16.3 µM; in the assay on SF-539 CNS, 5.37 µM; with SN12C renal, 9.63 µM; in the assay on UO-31 renal, 11 µM.

In the case of `O=C(Nc1ccc(Sc2ccc(N=Nc3c(O)c(S(=O)(=O)O)cc4cc(S(=O)(=O)O)ccc34)cc2)cc1)c1ccc(N=Nc2c(O)ccc3c(S(=O)(=O)O)cc(S(=O)(=O)O)cc23)cc1`, the TGI in the assay on CAKI-1 renal is more than 100 µM; in the assay with COLO 205 colon, 35 µM; in the assay with HOP-92 NSCLC, more than 100 µM; in the assay on IGROV1 ovarian, more than 100 µM; in the assay with NCI-H226 lung, more than 100 µM; in the assay on OVCAR-3 ovarian, 92.5 µM. The TGI with OVCAR-4 ovarian, with SF-539 CNS, in the assay with SN12C renal and in the assay on UO-31 renal was more than 100 µM each time.

Turning to `O=C(Nc1c(C(=O)NC2CCCCC2)[nH]c(=O)[nH]c1=O)c1ccc(Cl)cc1`, the TGI in the assay on CAKI-1 renal, in the assay on COLO 205 colon, in the assay on HOP-92 NSCLC, with IGROV1 ovarian, in the assay on NCI-H226 lung and in the assay on OVCAR-3 ovarian was more than 100 µM in each case. Further, the TGI in the assay on OVCAR-4 ovarian, in the assay on SF-539 CNS, in the assay on SN12C renal and with UO-31 renal was more than 100 µM in each case.

Regarding `CC(=O)O[C@H]1C=CC(=O)C(C)CC1C` (some centres undefined), the TGI with CAKI-1 renal, in the assay with COLO 205 colon, in the assay on HOP-92 NSCLC, with IGROV1 ovarian, with NCI-H226 lung and with OVCAR-3 ovarian was more than 100 µM each time. Further, the TGI with OVCAR-4 ovarian, with SF-539 CNS, with SN12C renal and in the assay on UO-31 renal was more than 100 µM each time.

For the compound `CCC(=O)NC(Nc1cccc(F)c1)(C(F)(F)F)C(F)(F)F`, the TGI in the assay with CAKI-1 renal is 93.9 µM; in the assay with COLO 205 colon, more than 100 µM; in the assay with HOP-92 NSCLC, more than 100 µM; in the assay with IGROV1 ovarian, more than 100 µM; with OVCAR-3 ovarian, more than 100 µM; in the assay with OVCAR-4 ovarian it was more than 100 µM. The TGI in the assay with SF-539 CNS, in the assay on SN12C renal and in the assay with UO-31 renal was more than 100 µM in each case.

`Clc1ccc(CNc2nc(Cl)c3[nH]cnc3n2)cc1Cl`: the TGI was 79.9 µM in the assay with CAKI-1 renal; 51.8 µM in the assay on COLO 205 colon; more than 100 µM with IGROV1 ovarian; 78.9 µM in the assay on NCI-H226 lung; more than 100 µM in the assay on OVCAR-3 ovarian; more than 100 µM with OVCAR-4 ovarian. Further, the values for the TGI with SF-539 CNS, with SN12C renal and with UO-31 renal were 45.2 µM, more than 100 µM and 60 µM, respectively.

As for `COc1ccc(-c2nn(-c3cccc(NC(=O)Nc4ccccc4)c3)cc2-c2ccncc2)cc1Cl`, the GI50 in the assay with CAKI-1 renal is 2.97 µM; in the assay with COLO 205 colon it was 2.56 µM; with IGROV1 ovarian it was 2.73 µM; in the assay on NCI-H226 lung, 2.15 µM; in the assay with SF-539 CNS, 1.8 µM; with SN12C renal, 2.39 µM. Moreover, the GI50 in the assay with UO-31 renal is 1.5 µM. The TGI in the assay on CAKI-1 renal is 9.35 µM; in the assay on COLO 205 colon, 6.69 µM; with IGROV1 ovarian, 8.02 µM; with NCI-H226 lung, 5.81 µM; with SF-539 CNS, 3.5 µM; in the assay on SN12C renal, 7.39 µM. The TGI in the assay with UO-31 renal came out at 4.02 µM.

As to `NC1(C(=O)O)CCc2ccc(N(CCCl)CCCl)cc2C1` (centres undefined), the TGI with COLO 205 colon, with HOP-92 NSCLC, in the assay with IGROV1 ovarian, with NCI-H226 lung, with OVCAR-3 ovarian and with OVCAR-4 ovarian was more than 100 µM in each case. The TGI in the assay with SF-539 CNS, in the assay with SN12C renal and in the assay on UO-31 renal was more than 100 µM throughout.

For `CN1C[C@H]2[C@@H](C1=O)[C@H](c1ccccc1)ON2C`, the TGI with CAKI-1 renal, in the assay with COLO 205 colon, with HOP-92 NSCLC, in the assay with IGROV1 ovarian, in the assay on NCI-H226 lung and in the assay on OVCAR-3 ovarian was more than 100 µM in each case. For the same compound, the TGI with OVCAR-4 ovarian, in the assay on SN12C renal and in the assay with UO-31 renal was more than 100 µM each time.

For the compound `O=C(O)C1CCC(=O)N1S(=O)(=O)c1ccccc1` (centres undefined), the TGI in the assay on CAKI-1 renal, in the assay on COLO 205 colon, in the assay on HOP-92 NSCLC, in the assay with IGROV1 ovarian, in the assay with NCI-H226 lung and in the assay on OVCAR-3 ovarian was more than 100 µM in each case. For the same compound, the TGI in the assay on OVCAR-4 ovarian, in the assay with SF-539 CNS, with SN12C renal and with UO-31 renal was more than 100 µM throughout.

Regarding `Fc1ccc(-c2nn3c(-c4cc(C(F)(F)F)cc(C(F)(F)F)c4)nnc3s2)cc1`, the GI50 in the assay on COLO 205 colon is more than 50 µM; in the assay with HOP-92 NSCLC, 1.22 µM; with IGROV1 ovarian, 1.66 µM; in the assay with NCI-H226 lung, 1.49 µM; in the assay with OVCAR-3 ovarian it was 1.16 µM; with OVCAR-4 ovarian it was 1.48 µM. The GI50 with SF-539 CNS was 3.07 µM; with SN12C renal, 2.51 µM; in the assay with UO-31 renal, 1.32 µM. Further, the TGI with COLO 205 colon was more than 50 µM; with HOP-92 NSCLC it was 3.93 µM; with IGROV1 ovarian, more than 50 µM; in the assay with NCI-H226 lung it was more than 50 µM; with OVCAR-3 ovarian, 2.42 µM; in the assay with OVCAR-4 ovarian, more than 50 µM. Further, the TGI in the assay with SF-539 CNS, with SN12C renal and in the assay on UO-31 renal was more than 50 µM in each case.
